According to patent US12077503B2, “Substituted cyclic amides and their use as herbicides” (FMC CORPORATION, priority 2015, dated 2024):

Key:
Type in all cases: in vivo
[1] = test system: corn (Zea mays); assay: Test G Post-Emergence Protocol; conditions: Zea mays, post-emergence, 312 h, read-out: Corn damage rating; for plant injury at 15.625 g/ha: 15.625 g ai/ha, evaluated after 13 days (100=total damage to plant; 0=no damage to plant); for plant injury at 62.5 g/ha: 62.5 g ai/ha; for plant injury at 62.5 g/ha / plant injury at 250 g/ha: evaluated after 13 days, 100=total damage to plant, 0=no damage to plant; for plant injury at 250 g/ha: 250 g ai/ha
Summary of the method: (§1)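 Scores run 0 (no damage) to 100 (total damage) and were taken 13 days after spraying. Plants had been raised in pots for 8 days under glasshouse control (24/16 °C, 14 h photoperiod, 65% humidity) and then treated at 15.625, 62.5 or 250 g/ha.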

[2] = test system: barnyardgrass (Echinochloa crus-galli); assay: Test G Post-Emergence Protocol; conditions: Echinochloa crus-galli, post-emergence, 312 h, read-out: Barnyardgrass damage rating; for pest or weed control at 15.625 g/ha: 15.625 g ai/ha, evaluated after 13 days (100=total damage to plant; 0=no damage to plant); for pest or weed control at 62.5 g/ha: 62.5 g ai/ha; for pest or weed control at 62.5 g/ha / pest or weed control at 250 g/ha: evaluated after 13 days, 100=total damage to plant, 0=no damage to plant; for pest or weed control at 250 g/ha: 250 g ai/ha
Summary of the method: as §1

[3] = test system: redroot pigweed (Amaranthus retroflexus); assay: Test G Post-Emergence Protocol; conditions: Amaranthus retroflexus, post-emergence, 312 h, read-out: Pigweed, Redroot damage rating; for pest or weed control at 15.625 g/ha: 15.625 g ai/ha, evaluated after 13 days (100=total damage to plant; 0=no damage to plant); for pest or weed control at 62.5 g/ha: 62.5 g ai/ha; for pest or weed control at 62.5 g/ha / pest or weed control at 250 g/ha: evaluated after 13 days, 100=total damage to plant, 0=no damage to plant; for pest or weed control at 250 g/ha: 250 g ai/ha
Summary of the method: as §1

[4] = test system: velvetleaf (Abutilon theophrasti); assay: Test G Post-Emergence Protocol; conditions: Abutilon theophrasti, post-emergence, 312 h, read-out: Velvetleaf damage rating; for pest or weed control at 15.625 g/ha: 15.625 g ai/ha, evaluated after 13 days (100=total damage to plant; 0=no damage to plant); for pest or weed control at 62.5 g/ha: 62.5 g ai/ha; for pest or weed control at 62.5 g/ha / pest or weed control at 250 g/ha: evaluated after 13 days, 100=total damage to plant, 0=no damage to plant; for pest or weed control at 250 g/ha: 250 g ai/ha
Summary of the method: as §1

[5] = test system: giant foxtail (Setaria faberi); assay: Test G Post-Emergence Protocol; conditions: Setaria faberi, post-emergence, 312 h, read-out: Foxtail, Giant damage rating; for pest or weed control at 15.625 g/ha: 15.625 g ai/ha, evaluated after 13 days (100=total damage to plant; 0=no damage to plant); for pest or weed control at 62.5 g/ha: 62.5 g ai/ha
Summary of the method: as §1

[6] = test system: ivy-leaved morning glory (Ipomoea hederacea); assay: Test G Post-Emergence Protocol; conditions: Ipomoea, post-emergence, 312 h, read-out: Morningglory, Ivy-leaved damage rating; for pest or weed control at 15.625 g/ha: 15.625 g ai/ha, evaluated after 13 days (100=total damage to plant; 0=no damage to plant); for pest or weed control at 62.5 g/ha: 62.5 g ai/ha; for pest or weed control at 62.5 g/ha / pest or weed control at 250 g/ha: evaluated after 13 days, 100=total damage to plant, 0=no damage to plant; for pest or weed control at 250 g/ha: 250 g ai/ha
Summary of the method: as §1

[7] = test system: corn (Zea mays); assay: Test G Pre-Emergence Protocol; conditions: Zea mays, pre-emergence, 312 h, evaluated after 13 days; for plant injury at 15.625 g/ha: 15.625 g ai/ha; for plant injury at 15.625 g/ha / plant injury at 250 g/ha: read-out: Corn damage rating (100=total damage to plant; 0=no damage to plant); for plant injury at 62.5 g/ha: 62.5 g ai/ha, 100=total damage to plant, 0=no damage to plant, read-out: Corn damage rating; for plant injury at 250 g/ha: 250 g ai/ha
Summary of the method: (§2)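 One day after sowing, pots are treated with a spray of test compound formulated in acetone/water 50:50 plus 0.5% Tween 20, giving 15.625, 62.5 or 250 g/ha. Evaluation on a 0–100 damage scale follows 13 days of glasshouse growth.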

[8] = test system: barnyardgrass (Echinochloa crus-galli); assay: Test G Pre-Emergence Protocol; conditions: Echinochloa crus-galli, pre-emergence, 312 h, evaluated after 13 days; for pest or weed control at 15.625 g/ha: 15.625 g ai/ha; for pest or weed control at 15.625 g/ha / pest or weed control at 250 g/ha: read-out: Barnyardgrass damage rating (100=total damage to plant; 0=no damage to plant); for pest or weed control at 62.5 g/ha: 62.5 g ai/ha, 100=total damage to plant, 0=no damage to plant, read-out: Barnyardgrass damage rating; for pest or weed control at 250 g/ha: 250 g ai/ha
Summary of the method: as §2

[9] = test system: redroot pigweed (Amaranthus retroflexus); assay: Test G Pre-Emergence Protocol; conditions: Amaranthus retroflexus, pre-emergence, 312 h, evaluated after 13 days; for pest or weed control at 15.625 g/ha: 15.625 g ai/ha; for pest or weed control at 15.625 g/ha / pest or weed control at 250 g/ha: read-out: Pigweed, Redroot damage rating (100=total damage to plant; 0=no damage to plant); for pest or weed control at 62.5 g/ha: 62.5 g ai/ha, 100=total damage to plant, 0=no damage to plant, read-out: Pigweed, Redroot damage rating; for pest or weed control at 250 g/ha: 250 g ai/ha
Summary of the method: as §2

[10] = test system: velvetleaf (Abutilon theophrasti); assay: Test G Pre-Emergence Protocol; conditions: Abutilon theophrasti, pre-emergence, 312 h, evaluated after 13 days; for pest or weed control at 15.625 g/ha: 15.625 g ai/ha; for pest or weed control at 15.625 g/ha / pest or weed control at 250 g/ha: read-out: Velvetleaf damage rating (100=total damage to plant; 0=no damage to plant); for pest or weed control at 62.5 g/ha: 62.5 g ai/ha, 100=total damage to plant, 0=no damage to plant, read-out: Velvetleaf damage rating; for pest or weed control at 250 g/ha: 250 g ai/ha
Summary of the method: as §2

[11] = test system: giant foxtail (Setaria faberi); assay: Test G Pre-Emergence Protocol; conditions: Setaria faberi, pre-emergence, 312 h, evaluated after 13 days; for pest or weed control at 15.625 g/ha: 15.625 g ai/ha; for pest or weed control at 15.625 g/ha / pest or weed control at 250 g/ha: read-out: Foxtail, Giant damage rating (100=total damage to plant; 0=no damage to plant); for pest or weed control at 62.5 g/ha: 62.5 g ai/ha, 100=total damage to plant, 0=no damage to plant, read-out: Foxtail, Giant damage rating; for pest or weed control at 250 g/ha: 250 g ai/ha
Summary of the method: as §2

[12] = test system: ivy-leaved morning glory (Ipomoea hederacea); assay: Test G Pre-Emergence Protocol; conditions: Ipomoea, pre-emergence, 312 h, evaluated after 13 days; for pest or weed control at 15.625 g/ha: 15.625 g ai/ha; for pest or weed control at 15.625 g/ha / pest or weed control at 250 g/ha: read-out: Morningglory, Ivy-leaved damage rating (100=total damage to plant; 0=no damage to plant); for pest or weed control at 62.5 g/ha: 62.5 g ai/ha, 100=total damage to plant, 0=no damage to plant, read-out: Morningglory, Ivy-leaved damage rating; for pest or weed control at 250 g/ha: 250 g ai/ha
Summary of the method: as §2

[13] = evaluated after 13 days, 100=total damage to plant, 0=no damage to plant

Cc1ccc(C2CN(C)C(=O)C2C(=O)Nc2cccc(F)c2F)cc1C#N (centres unmarked) [Compound 1687]
plant injury at 15.625 g/ha [1]: 10% | plant injury at 62.5 g/ha [1]: 40% | plant injury at 250 g/ha [1]: 90% | pest or weed control at 15.625 g/ha [2]: 0% | pest or weed control at 62.5 g/ha [2]: 50% | pest or weed control at 250 g/ha [2]: 80% | pest or weed control at 15.625 g/ha [3]: 40% | pest or weed control at 62.5 g/ha [3]: 40% | pest or weed control at 250 g/ha [3]: 50% | pest or weed control at 15.625 g/ha [4]: 40% | pest or weed control at 62.5 g/ha [4]: 40% | pest or weed control at 250 g/ha [4]: 50% | pest or weed control at 15.625 g/ha [5]: 60% | pest or weed control at 62.5 g/ha [5, 13]: 80% | pest or weed control at 250 g/ha ([5]; 250 g ai/ha, evaluated after 13 days, 100=total damage to plant, 0=no damage to plant): 80% | pest or weed control at 15.625 g/ha [6]: 20% | pest or weed control at 62.5 g/ha [6]: 60% | pest or weed control at 250 g/ha [6]: 70% | plant injury at 15.625 g/ha [7]: 0% | plant injury at 62.5 g/ha [7]: 40% | plant injury at 250 g/ha [7]: 90% | pest or weed control at 15.625 g/ha [8]: 40% | pest or weed control at 62.5 g/ha [8]: 70% | pest or weed control at 250 g/ha [8]: 80% | pest or weed control at 15.625 g/ha [9]: 0% | pest or weed control at 62.5 g/ha [9]: 10% | pest or weed control at 250 g/ha [9]: 30% | pest or weed control at 15.625 g/ha [10]: 0% | pest or weed control at 62.5 g/ha [10]: 0% | pest or weed control at 250 g/ha [10]: 10% | pest or weed control at 15.625 g/ha [11]: 60% | pest or weed control at 62.5 g/ha [11]: 70% | pest or weed control at 250 g/ha [11]: 90% | pest or weed control at 15.625 g/ha [12]: 0% | pest or weed control at 62.5 g/ha [12]: 40% | pest or weed control at 250 g/ha [12]: 50%

COc1ccc(C2CN(C)C(=O)C2C(=O)Nc2cccc(F)c2F)cc1C (centres unmarked) [Compound 1688]
plant injury at 15.625 g/ha [1]: 0% | plant injury at 62.5 g/ha [1]: 30% | plant injury at 250 g/ha [1]: 60% | pest or weed control at 15.625 g/ha [2]: 30% | pest or weed control at 62.5 g/ha [2]: 70% | pest or weed control at 250 g/ha [2]: 90% | pest or weed control at 15.625 g/ha [3]: 0% | pest or weed control at 62.5 g/ha [3]: 0% | pest or weed control at 250 g/ha [3]: 10% | pest or weed control at 15.625 g/ha [4]: 0% | pest or weed control at 62.5 g/ha [4]: 0% | pest or weed control at 250 g/ha [4]: 10% | pest or weed control at 15.625 g/ha [5]: 60% | pest or weed control at 62.5 g/ha [5, 13]: 80% | pest or weed control at 15.625 g/ha [6]: 0% | pest or weed control at 62.5 g/ha [6]: 20% | pest or weed control at 250 g/ha [6]: 60% | plant injury at 15.625 g/ha [7]: 0% | plant injury at 62.5 g/ha [7]: 50% | plant injury at 250 g/ha [7]: 70% | pest or weed control at 15.625 g/ha [8]: 50% | pest or weed control at 62.5 g/ha [8]: 70% | pest or weed control at 250 g/ha [8]: 90% | pest or weed control at 15.625 g/ha [9]: 30% | pest or weed control at 62.5 g/ha [9]: 20% | pest or weed control at 250 g/ha [9]: 60% | pest or weed control at 15.625 g/ha [10]: 10% | pest or weed control at 62.5 g/ha [10]: 0% | pest or weed control at 250 g/ha [10]: 50% | pest or weed control at 15.625 g/ha [11]: 70% | pest or weed control at 62.5 g/ha [11]: 80% | pest or weed control at 250 g/ha [11]: 90% | pest or weed control at 15.625 g/ha [12]: 0% | pest or weed control at 62.5 g/ha [12]: 0% | pest or weed control at 250 g/ha [12]: 10%
